Assay results published in US20260103471A1, “CYCLIC UREA THIAZOLYL COMPOUNDS FOR TREATMENT OF HSV” (Assembly Biosciences, Inc., priority 2022, published 2026).
Where two headings read alike, the source gives them in different places.

Columns and labels:
HSV-1 = HSV-1 Antiviral Assay (Vero cells, cell viability); format: cell-based; details: read-out: HSV-1 EC50
Experimental: Vero cells were cultured in Dulbecco's Modified Eagle Medium (DMVEM) supplemented with […] and 100 units/mL penicillin and streptomycin. The cells were passaged 2-3 times per week to maintain sub-confluent densities.
Vero cells were seeded into 96-well plates at a density of 2.5×10^3 cells per well and allowed to attach overnight. Following attachment, the media was replaced with 50 μL of infection medium (DMVEM supplemented with 2% fetal bovine serum and 100 units/mL penicillin and streptomycin). A Tecan D300e digital dispenser was then used to add compounds to the culture using an 8-point 3-fold serial dilution format. The DMSO concentration was normalized to 0.5% for all treatments. Following compound addition, 50 μL of infection medium containing 80 TCID50 HSV-1 was added to the cells and incubated at 37° C. for 4 days. After the incubation, the plates were equilibrated to room temperature, the media was removed, and […] a 1:1 dilution of Cell titer glow and phosphate buffered saline was added to the cells. Following a 5-minute incubation, cell viability was quantified by measuring luminance using a Tecan Infinite M1000 Pro plate reader.

HSV-2 G strain = assay: HSV-2 Antiviral Assay (Vero cells, cell viability); format: cell-based; details: Vero cells, 160 TCID50 HSV-2 G strain, 5 days, cell viability
Outline: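 Vero cells (1.0×10^4/well, attached overnight) given 8-point 3-fold compound dilutions (0.5% DMSO) then infected with 160 TCID50 HSV-2 G strain in 2% FBS medium for 5 days at 37 °C. Protection read as cell viability by WST-8 absorbance at 460 and 620 nm after 3 h.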

[1] = Human alphaherpesvirus 1, 96 h, Vero cells, 80 TCID50 HSV-1, 4 days, cell viability
[2] = Human alphaherpesvirus 2, Vero, 120 h

SMILES | EC50 (HSV-1; [1]) [nM] | EC50 (HSV-2 G strain; [2]) [nM] | other results
Cc1nc(N2CCCN(c3ccc(-c4cc(F)ccc4F)cc3)C2=O)sc1[S@@](C)(=N)=O (single isomer, unassigned) [Compound 140] | 100 to 1000 | 100 to 1000 | –
Cc1nc(N2CCCN(c3ccc(-c4cc(F)ccc4F)cc3)C2=O)sc1[S@](C)(=N)=O (single isomer, unassigned) [Compound 141] | < 100 | < 100 | –
Cc1nc(N2CC3(CC3)CN(c3ccc(-c4cc(F)ccc4F)cc3)C2=O)sc1[S@](C)(=N)=O (single isomer, unassigned) [Compound 156] | < 100 | < 100 | –
Cc1nc(N2CC3(CC3)CN(c3ccc(-c4cc(F)ccc4F)cc3)C2=O)sc1[S@@](C)(=N)=O (single isomer, unassigned) [Compound 157] | 100 to 1000 | < 100 | –
Cc1nc(N2CCCN([C@@H](C)c3cccc(-c4cc(F)ccc4F)c3)C2=O)sc1S(N)(=O)=O (single isomer, unassigned) [Compound 175] | 1000 to 5000 | 1000 to 5000 | –
Cc1nc(N2CCCN([C@H](C)c3cccc(-c4cc(F)ccc4F)c3)C2=O)sc1S(N)(=O)=O (single isomer, unassigned) [Compound 176] | 1000 to 5000 | 1000 to 5000 | –
Cc1nc(N2CCCN([C@H](C)c3cccc(-c4ccccc4F)c3)C2=O)sc1S(N)(=O)=O (single isomer, unassigned) [Compound 178] | 1000 to 5000 | 1000 to 5000 | –
Cc1nc(N2C[C@H](C)CN(c3ccc(-c4ccccc4Cl)cc3)C2=O)sc1S(N)(=O)=O (single isomer, unassigned) [Compound 322] | < 100 | < 100 | –
Cc1nc(N2C[C@@H](C)CN(c3ccc(-c4ccccc4Cl)cc3)C2=O)sc1S(N)(=O)=O (single isomer, unassigned) [Compound 323] | < 100 | < 100 | –
Cc1nc(N2C[C@H](C(C)(C)O)CN(c3ccc(-c4cc(F)ccc4F)cc3)C2=O)sc1S(N)(=O)=O (single isomer, unassigned) [Compound 343] | < 100 | < 100 | –
Cc1nc(N2C[C@H](C#N)CN(c3ccc(-c4cc(F)ccc4F)cc3)C2=O)sc1S(N)(=O)=O (single isomer, unassigned) [Compound 361] | < 100 | < 100 | –
Cc1nc(N2C[C@H](C#N)CN(c3ccc(-c4cc(F)ccc4F)cc3)C2=O)sc1S(N)(=O)=O (single isomer, unassigned) [Compound 376] | – | – | EC50 (HSV-1; Vero cells, 80 TCID50 HSV-1, 4 days, cell viability): < 100 nM; EC50 (HSV-2 G strain): < 100 nM
Cc1nc(N2CCCN(c3ccc(-c4ccccn4)cc3)C2=O)sc1S(N)(=O)=O [Compound 1, 4-Methyl-2-(2-oxo-3-(4-(pyridin-2-yl)phenyl)tetrahydropyrimidin-1(2H)-yl) thiazole-5-sulfonamide] | < 100 | < 100 | –
Cc1nc(N2CCCN(c3ccc(-c4cccnc4)cc3)C2=O)sc1S(N)(=O)=O [Compound 2] | 100 to 1000 | 100 to 1000 | –
Cc1nc(N2CCCN(c3ccc(-c4ccncc4)cc3)C2=O)sc1S(N)(=O)=O [Compound 3] | 100 to 1000 | 100 to 1000 | –
Cc1nc(N2CCCN(c3cccc(-c4ccccn4)c3)C2=O)sc1S(N)(=O)=O [Compound 4] | 100 to 1000 | 100 to 1000 | –
Cc1nc(N2CCCN(c3ccc(-c4cc(F)ccc4F)cc3)C2=O)sc1S(N)(=O)=O [Compound 5] | < 100 | < 100 | –
Cc1nc(N2CCCN(c3ccc(-c4cccc(F)c4F)cc3)C2=O)sc1S(N)(=O)=O [Compound 6] | < 100 | < 100 | –
Cc1nc(N2CCCN(c3ccc(-c4cc(F)cc(F)c4F)cc3)C2=O)sc1S(N)(=O)=O [Compound 7] | < 100 | < 100 | –
Cc1nc(N2CCCN(c3ccc(-c4ccccc4F)cc3)C2=O)sc1S(N)(=O)=O [Compound 8] | < 100 | < 100 | –
Cc1nc(N2CCCN(c3ccc(-c4ccccc4Cl)cc3)C2=O)sc1S(N)(=O)=O [Compound 9] | < 100 | < 100 | –
COc1ccccc1-c1ccc(N2CCCN(c3nc(C)c(S(N)(=O)=O)s3)C2=O)cc1 [Compound 10] | < 100 | < 100 | –
Cc1nc(N2CCCN(c3ccc(-c4ccccc4C(F)F)cc3)C2=O)sc1S(N)(=O)=O [Compound 12] | < 100 | < 100 | –

SMILES | EC50 (HSV-1; [1]) [nM] | EC50 (HSV-2 G strain; [2]) [nM] | other results
Cc1nc(N2CCCN(c3ccc(-n4ncc5ccccc54)cc3)C2=O)sc1S(N)(=O)=O [Compound 93] | < 100 | – | –
Cc1nc(N2CCCN(c3cnn(-c4ccccc4F)c3)C2=O)sc1S(N)(=O)=O [Compound 100] | 1000 to 5000 | – | –
Cc1nc(N2CCN(c3ccc(-c4cc(F)ccc4F)cc3)C2=O)sc1S(N)(=O)=O [Compound 104] | 1000 to 5000 | – | –
Cc1nc(N2CC(C)(C)CN(c3ccc(-c4cc(F)ccc4F)cc3)C2=O)sc1S(N)(=O)=O [Compound 106] | < 100 | – | –
Cc1nc(N2CC3(CC3)CN(c3ccc(-c4ccccc4F)cc3)C2=O)sc1S(N)(=O)=O [Compound 111] | < 100 | – | –
CNS(=O)(=O)c1sc(N2CCCN(c3ccc(-c4cccc(NC(=O)OC(C)(C)C)n4)cc3)C2=O)nc1C [Compound 125] | 100 to 1000 | – | –
Cc1nc(N2CCCN(c3ccc(-c4ccccn4)c(F)c3)C2=O)sc1S(=O)(=O)NC1CC1 [Compound 129] | 100 to 1000 | – | –
Cc1nc(N2CCCN(c3ccc(-c4cc(F)ccc4F)cc3)C2=O)sc1S(=O)(=O)Nc1ccccc1 [Compound 134] | 100 to 1000 | – | –
Cc1nc(N2CCCN(c3ccc(-c4cc(F)ccc4F)cc3)C2=O)sc1S(=O)(=O)N1CCNCC1 [Compound 135] | 100 to 1000 | – | –
Cc1nc(N2CCCN(c3ccc(-c4cc(F)ccc4F)cc3)C2=O)sc1S(=O)(=O)N1CCOCC1 [Compound 136] | 100 to 1000 | – | –
CC(=O)NS(=O)(=O)c1sc(N2CCCN(c3ccc(-c4cc(F)ccc4F)cc3)C2=O)nc1C [Compound 137] | 1000 to 5000 | – | –
Cc1nc(N2CCCN(c3ccc(-c4cc(F)ccc4F)cc3)C2=O)sc1S(C)(=N)=O (stereo not drawn) [Compound 139, 1-(2′,5′-Difluoro-[1,1′-biphenyl]-4-yl)-3-(4-methyl-5-(S-methylsulfonimidoyl)thiazol-2-yl) tetrahydropyrimidin-2(1H)-one] | 100 to 1000 | – | –
CCS(=N)(=O)c1sc(N2CCCN(c3ccc(-c4cc(F)ccc4F)cc3)C2=O)nc1C (stereo not drawn) [Compound 148] | < 100 | – | –
Cc1nc(N2CC3(CC3)CN(c3ccc(-c4ccccc4F)cc3)C2=O)sc1S(C)(=N)=O (stereo not drawn) [Compound 158] | 100 to 1000 | – | –
Cc1nc(N2CCCN(c3ccc(-c4cc(F)ccc4F)cc3)C2=O)sc1S(=O)(=O)C(C)C [Compound 162, 1-(2′,5′-Difluoro-[1,1′-biphenyl]-4-yl)-3-(5-(isopropylsulfonyl)-4-methylthiazol-2-yl) tetrahydropyrimidin-2(1H)-one] | 100 to 1000 | – | –
Cc1nc(N2CCCN(c3ccc(-c4cc(F)ccc4F)cc3)C2=O)sc1S(=O)(=O)F [Compound 165] | – | – | EC50 (HSV-1; Human alphaherpesvirus 1, Vero, 96 h): 1000 to 5000 nM
CS(=O)(=O)c1cnc(N2CCCN(c3ccc(-c4cc(F)ccc4F)cc3)C2=O)s1 [Compound 167] | 100 to 1000 | – | –
Cc1nc(N2CCCN(c3ccc(-c4ccccc4F)cc3)C2=O)sc1[S+](C)[O-] (stereo not drawn) [Compound 168] | 100 to 1000 | – | –
NS(=O)(=O)c1sc(N2CCCN(c3ccc(-c4cc(F)ccc4F)cc3)C2=O)nc1C(F)(F)F [Compound 169, 2-(3-(2′,5′-Difluoro-[1,1′-biphenyl]-4-yl)-2-oxotetrahydropyrimidin-1(2H)-yl)-4-(trifluoromethyl) thiazole-5-sulfonamide] | < 100 | – | –
NS(=O)(=O)c1sc(N2CCCN(c3ccc(-c4ccccc4F)cc3)C2=O)nc1C(F)(F)F [Compound 170] | < 100 | – | –
Cc1nc(N2CCCN(C(C)c3cccc(-c4ccccc4F)c3)C2=O)sc1S(N)(=O)=O (stereo not drawn) [Compound 177] | 1000 to 5000 | – | –
Cc1nc(N2CCCN(Cc3cccc(-c4cc(F)ccc4F)c3)C2=O)sc1S(=O)(=O)NC1CC1 [Compound 180] | 100 to 1000 | – | –
Cc1nc(N2CCCN(Cc3cccc(-c4ccccc4)c3)C2=O)sc1S(=O)(=O)NC1CC1 [Compound 183] | 100 to 1000 | – | –
